Results: PMC8476055, “Synthesis and Biological Activity of Triterpene–Coumarin Conjugates” (Journal of Natural Products, 2021)
“And” between values parts separate entries of the source, which are not always exact repeats. Identical values can stand only once.

Experiments:
HT29 cells = assay: Annexin V-FITC/PI flow cytometry (apoptosis), HT29; assay type: cell-based, human; conditions: HT29, 72 h at IC50 concentration, mean ± S.E.M.
Method: (§1) In consideration of the cytotoxic results of these triterpene conjugates with the three cell lines assayed, three MA–diamine–coumarin conjugates (1, 4, and 7) and the MA–coumarin conjugate 10 were selected for the following cytometry studies on the three cancer cell lines. Thus, the apoptotic determination assays were performed through double staining with Annexin V (An-V), conjugated fluorescein isothiocyanate (FITC), and propidium iodide (PI). […] The values of percentage of total apoptosis were expressed as means ± SEM of at least two duplicate experiments (Figure 1).
(§2) Apoptosis was assessed by flow cytometry using a FACScan (fluorescence-activated cell sorter) flow cytometer (Coulter Corporation, Hialeah, FL, USA). For these assays, 5 × 10^4 B16–F10, 6 × 10^4 HT29 cells, and 15 × 10^4 Hep G2 cells were placed in 24-well plates with 1.5 mL of medium and incubated for 24 h. Subsequently, the cells were treated with the selected compounds in triplicate for 72 h at their corresponding IC50 concentrations. The cells were collected and resuspended in a binding buffer (10 mM HEPES/NaOH, pH 7.4, 140 mM NaCl, 2.5 mM CaCl2). Annexin V-FITC conjugate (1 mg/mL) was then added and incubated for 15 min at room temperature in darkness. Just before the analysis by flow cytometry, cells were stained with 20 μL of 1 mg/mL PI solution. In each experiment, approximately 10 × 10^3 cells were analyzed, and the experiment was duplicated twice.

Hep G2 cells [1] = assay: Annexin V-FITC/PI flow cytometry (apoptosis), Hep G2; assay type: cell-based, human; conditions: Hep G2, 72 h at IC50 concentration, mean ± S.E.M.
Method: as §1, §2

B16–F10 cells [2] = assay: Annexin V-FITC/PI flow cytometry (apoptosis), B16–F10; assay type: cell-based, murine; conditions: B16-F10, 72 h at IC50 concentration, mean ± S.E.M.
Method: as §1, §2

B16–F10 cells [3] = assay: Mitochondrial-membrane potential (Rh123) flow cytometry, B16–F10; assay type: cell-based, murine; conditions: B16–F10, 72 h at IC50 concentration
Method: (§3) The study of the loss of the mitochondrial-membrane potential (MMP) of tumor cells, when treated with drugs, can provide information on the activation mechanism of apoptosis. This activation can occur extrinsically when MMP is not altered, and intrinsically when a loss of this potential is caused by mitochondrial disruption. […] The values of percentage of cell population were expressed as means ± SEM of at least two experiments in duplicate. Changes in MMP were analyzed by monitoring cell fluorescence after staining with rhodamine 123 (Rh123).
(§4) The electrochemical gradient across the mitochondrial membrane was examined by analytical flow cytometry, using dihydrorhodamine (DHR), which in contact with living cells, oxidized to form highly fluorescent rhodamine 123 (Rh123). The fluorescence emitted can be monitored by fluorescence spectroscopy using excitation and emission wavelengths of 500 and 536 nm, respectively. […] Following treatment, the culture medium was renewed with fresh medium by adding 0.5 mL of DHR, for a final concentration of […]. Cells were incubated for 1 h at 37 °C in an atmosphere of 5% CO2 and 95% humidity and subsequently washed and resuspended in PBS. The fluorescence intensity was measured using a FACScan flow cytometer (fluorescence-activated cell sorter). The experiments were performed three times with two replicates per assay.

[4] = tested on: Hep G2 human hepatocyte carcinoma cells; assay: MTT cell proliferation assay, Hep G2 cells; assay type: cell-based; conditions: HepG2, 72 h treatment, untreated control = 100% viability, read-out: IC50, growth inhibition of Hep G2 cells
Method: (§5) These studies were performed using a 3-(4,5-dimethylthiazol-2-yl)-2,5-diphenyltetrazolium bromide (MTT) assay, with increasing concentration levels of each compound (0–200 μg/mL). Cell viability was determined after treatment for 72 h, by absorption of a formazan dye.
(§6) […] ATTC HTB-38), Hep G2 human hepatocyte carcinoma cells (ECACC 85011430), nontumor human epithelial lung fibroblast cells HPF (ScienCell catalog (cat.) no. 3300), nontumor rat ileum cells IEC-18 (ECACC no. 88011801), and nontumor human embryo liver cells (ECACC 89121403) were cultured in DMEM medium supplemented with 2 mM glutamine, 10% heat-inactivated fetal bovine serum (FCS), 10.000 units/mL penicillin, and […]. These cells were incubated at 37 °C in an atmosphere of 5% CO2 and 95% humidity. The culture media were changed every 48 h, and the confluent cultures were separated with a trypsin solution (0.25% EDTA). Subconfluent monolayer cells were used in all experiments. All cell lines used were provided by the cell bank of the University of Granada (Spain).
(§7) The effect of the synthesized compounds on the viability of tumor cells was assessed using an MTT assay, based on the ability of living cells to cleave the tetrazolium ring, thus producing formazan, which absorbs at 570 nm. […] For an evaluation of the cytotoxic effects of these compounds, the cells were seeded in 96-well plates at an initial density of 5 × 10^3 B16–F10 cells, 6 × 10^3 HT29 cells, 15 × 10^3 Hep G2 cells, 8 × 10^3 HPF cells, 15 × 10^3 IEC-18 cells, and 11 × 10^3 WRL68 cells, per well. After incubation for 24 h, the cells were treated with the synthesized compounds in triplicate, at different concentrations (0–200 μg/mL), and incubated for 72 h. Thereafter, 100 μL of MTT solution (0.5 mg/mL) were added to each well. After 2 h of incubation, the cells were washed twice with phosphate buffered saline (PBS), and the formazan was resuspended in 100 μL of DMSO. Relative cell viability, with respect to untreated control cells, was measured by absorbance at 550 nm on an ELISA plate reader (Tecan Sunrise MR20-301, TECAN, Austria). […] These experiments were measured and compared to the control after 72 h of treatment.

[5] = tested on: HT29 human colon adenocarcinoma cells; assay: MTT cell proliferation assay, HT29 cells; assay type: cell-based; conditions: HT-29, 72 h treatment, untreated control = 100% viability, read-out: IC50, growth inhibition of HT29 cells
Method: as §5, §6, §7

[6] = tested on: B16–F10 murine melanoma cells; assay: MTT cell proliferation assay, B16–F10 cells; assay type: cell-based; conditions: Mus musculus, 72 h treatment, untreated control = 100% viability, read-out: IC50, growth inhibition of B16–F10 cells
Method: as §5, §6, §7

Hep G2 cells [7] = assay: Mitochondrial-membrane potential (Rh123) flow cytometry, Hep G2; assay type: cell-based, human; conditions: Hep G2, 72 h at IC50 concentration
Method: as §3, §4

Structure (SMILES)	Early Apoptosis (HT29 cells) [%]	Late Apoptosis (HT29 cells) [%]	Necrosis (HT29 cells) [%]	Total Apoptosis (HT29 cells)	Viable Cells (HT29 cells) [%]	Early Apoptosis (Hep G2 cells [1]) [%]	Late Apoptosis (Hep G2 cells [1]) [%]	Necrosis (Hep G2 cells [1]) [%]	Total Apoptosis (Hep G2 cells [1])	Viable Cells (Hep G2 cells [1]) [%]	Early Apoptosis (B16–F10 cells [2]) [%]	Late Apoptosis (B16–F10 cells [2]) [%]	Necrosis (B16–F10 cells [2]) [%]	Total Apoptosis (B16–F10 cells [2])	Viable Cells (B16–F10 cells [2]) [%]	Rh123 staining (mitochondrial-membrane potential) (B16–F10 cells [3])	IC50 [4] [µM]	IC50 [5] [µM]	IC50 [6] [µM]	Rh123 staining (mitochondrial-membrane potential) (Hep G2 cells [7])
CC1(C)CC[C@]2(C(=O)NCCCNC(=O)/C=C/c3ccc(O)cc3)CC[C@]3(C)C(=CC[C@@H]4[C@@]5(C)C[C@@H](O)[C@H](O)C(C)(C)[C@@H]5CC[C@]43C)[C@@H]2C1 [Compound 7, 2α,3β-Dihydroxy-N-(3′-((E)-3″-(4‴-hydroxyphenyl)acrylamido)propyl)olean-12-en-28-amide]	16.2 ± 3.6	29.4 ± 1.6	1.5 ± 0.4	45.6 ± 2.0%	52.9 ± 2.0	57.4 ± 4.3	18.6 ± 3.2	2.2 ± 0.6	75.9 ± 2.0% and 76%	21.9 ± 1.3	39.0 ± 4.1	18.6 ± 0.1	3.1 ± 0.6	57.6 ± 3.2%	39.3 ± 3.5	positive Rh123 staining	8.8 ± 0.4	10.9 ± 0.5	10.4 ± 0.2	–
CC1(C)CC[C@]2(C(=O)NCCCNC(=O)c3cc4ccccc4oc3=O)CC[C@]3(C)C(=CC[C@@H]4[C@@]5(C)C[C@@H](O)[C@H](O)C(C)(C)[C@@H]5CC[C@]43C)[C@@H]2C1 [Compound 1, 2α,3β-Dihydroxy-N-(3′-(2″-oxo-2″H-chromene-3″-carboxamido)propyl)olean-12-en-28-amide]	10.8 ± 0.6	29.2 ± 0.5	3.7 ± 0.9	40.0 ± 0.5%	56.3 ± 1.3	50.1 ± 4.5	19.4 ± 4.8	1.8 ± 0.4	69.5 ± 2.3%	28.8 ± 2.8	48.5 ± 2.8	19.4 ± 4.2	1.7 ± 0.4	67.9 ± 1.5%	30.5 ± 1.9	positive Rh123 staining	> 10	> 10	> 10	negative Rh123 staining
CC1(C)CC[C@]2(C(=O)NCCCNC(=O)Cc3cc(=O)oc4cc(O)ccc34)CC[C@]3(C)C(=CC[C@@H]4[C@@]5(C)C[C@@H](O)[C@H](O)C(C)(C)[C@@H]5CC[C@]43C)[C@@H]2C1 [Compound 4, 2α,3β-Dihydroxy-N-(3′-(2″-(7‴-hydroxy-2‴-oxo-2‴H-chromen-4‴-yl)acetamido)propyl)olean-12-en-28-amide]	32.0 ± 2.3	20.5 ± 3.0	6.2 ± 0.9	52.4 ± 3.0%	41.4 ± 3.8	48.5 ± 3.8	20.1 ± 5.3	1.9 ± 0.2	68.5 ± 1.6%	29.7 ± 1.3	74.9 ± 2.6	10.5 ± 1.4	0.7 ± 0.0	85.4 ± 3.0% and 85%	14.0 ± 3.9	positive Rh123 staining	> 10	> 10	> 10	negative Rh123 staining
CC1(C)CC[C@]2(C(=O)O)CC[C@]3(C)C(=CC[C@@H]4[C@@]5(C)C[C@@H](OC(=O)c6cc7ccccc7oc6=O)[C@H](OC(=O)c6cc7ccccc7oc6=O)C(C)(C)[C@@H]5CC[C@]43C)[C@@H]2C1 [Compound 10]	23.8 ± 4.2	34.1 ± 4.9	6.5 ± 0.0	57.9 ± 1.6% and 58%	35.7 ± 2.3	19.2 ± 4.9	21.6 ± 3.2	4.2 ± 1.1	40.8 ± 3.2%	55.0 ± 1.4	18.1 ± 3.0	22.9 ± 3.8	5.7 ± 0.8	41.0 ± 1.7%	53.4 ± 2.9	positive Rh123 staining	0.9	1.1 ± 0.1	0.6	negative Rh123 staining
